“Also recorded” adds a separate entry of the source.
Columns and labels:
[1] = tested on: subjects; conditions: cited from earlier work
[2] = tested on: subjects; conditions: subjects administered MDMA; cited from earlier work
[3] = cited from earlier work
[4] = tested on: individual; assay: Self-administration of combinations and single-compound controls, subjective reports recorded by the individual; type: in vivo, human
Description: In several examples of such administration, the combinations as follows were self-administered, with the subjective reports recorded by the individual during and/or following such administration, as below.
The following example was performed for purposes of and is presented as a control.
In an example, the combination as set forth below was self-administered, with the report as follows.
The working example below was performed for purposes of and is presented as a control.
The working examples below were also performed for purposes of and are presented as controls, using an escalating dose of a single primer alone, applicable to this and other Examples.

[5] = tested on: α2-adrenergic receptor; conditions: cited from earlier work
[6] = tested on: I1; conditions: cited from earlier work
[7] = tested on: I1 Imidazoline Sites; conditions: cited from earlier work; for Selectivity Ratio: I1 relative to α2 (α2 value / I1 value)
[8] = control: 4.0 mg 5-MeO-MiPT alone
[9] = control: 8.0 mg 5-MeO-MiPT alone
[10] = control: 10.0 mg 5-MeO-MiPT alone

## CNC(C)Cc1ccc2c(c1)OCO2 (racemic) [MDMA, (RS)-1-(1,3-Benzo-dioxol-5-yl)-N-methylpropan-2-amine]
[1]; following administration of MDMA
  subject-reported sociability: increases in sociability
[1]; subjects administered MDMA
  brain imaging responses to facial expressions: attenuated responses to angry facial expressions and enhanced responses to happy expressions
[2]
  mental state decoding (mind reading) of social cues: enhanced mental state decoding of positive stimuli, such as friendliness, and impaired the accuracy of mind reading for negative stimuli
[3]; graduate student
  effect on a stutter (case, Shulgin & Shulgin, 1991): dramatic improvements in a stutter
[3]; in vivo
  efficacy in autistic social impairment (systematic review, Chaliha, 2021): efficacious as a pharmacological treatment

## COc1ccc2[nH]cc(CCN(C)C(C)C)c2c1 [Example 5-MeO-MiPT, N-isopropyl-5-methoxy-N-methyltryptamine]
[4]; [8]
  physical discomfort (self-report): my brain was so heavy and tired
  subjective effects (self-report): My emotion is quite neutral, not much different from the normal state
[4]; control: 6.0 mg 5-MeO-MiPT alone
  subjective effects (self-report): generally emotionally neutral
[4]; [9]
  physical discomfort (self-report): my body was uncoordinated, and I trembled a lot
  subjective effects (self-report): There was no emergence of a stable mental state; also recorded: There was not much feeling
[4]; [10]
  physical discomfort (self-report): My stomach was so upset that I had to vomit
  subjective effects (self-report): void of emotion and mental activities

## CC1CC(NC(C2CC2)C2CC2)=NC1C (centres unmarked) [LNP509, dicyclopropylmethyl-(4,5-dimethyl-4,5-dihydro-3H-pyrrol-2-yl)-amine]
[5]
  affinity or activity for the α2-adrenergic receptor: no detectable affinity or activity

## Cc1c(Cl)cccc1NC1=NCC(C)C1 (centres unmarked) [LNP599]
[6]
  affinity for I1: nanomolar affinity
[5]
  affinity or activity for the α2-adrenergic receptor: no detectable affinity or activity

## CC1CNC(Nc2c(Cl)cccc2Cl)=N1 (centres unmarked) [LNP630, (2,6-dichloro-phenyl)-(4-methyl-4,5-dihydro-1H-imidazol-2-yl)-amine]
[5]
  affinity or activity for the α2-adrenergic receptor: no detectable affinity or activity

## CC1CCC(Nc2cc(N=[N+]=[N-])c(I)cc2Cl)=N1 (centres unmarked) [LNP906, 2-(5-azido-2-chloro-4-iodo-phenyl-amino)-5-methyl-pyrroline]
[5]
  affinity or activity for the α2-adrenergic receptor: no detectable affinity or activity

## CC1CCC(Nc2ccc(I)cc2Cl)=N1 (centres unmarked) [LNP911, 2-(2-chloro-4-iodo-phenylamino)-5-methyl-pyrroline]
[5]
  affinity or activity for the α2-adrenergic receptor: no detectable affinity or activity

## CC(Oc1c(Cl)cccc1Cl)C1=NCCN1 (centres unmarked) [Lofexidine]
[7]
  Selectivity Ratio: 3.63

## COc1nc(C)nc(Cl)c1NC1=NCCN1 [Moxonidine, 4-Chloro-N-(4,5-dihydro-1H-imidazol-2-yl)-6-methoxy-2-methylpyrimidin-5-amine]
[4]; control: 0.2 mg Moxonidine alone, 12:30 pm
  subjective effects (self-report): more focused, probably more centered, less distracted by thinking; also recorded: All very subtle but detectable

## C1COC(NC(C2CC2)C2CC2)=N1 [Rilmenidine, N-(dicyclopropylmethyl)-4,5-dihydro-1,3-oxazol-2-amine]
[4]; control: 1.0 mg Rilmenidine alone, 9:00 pm
  subjective effects (self-report): relaxing, my chest less strained; also recorded: the effect was subtle
[7]
  Selectivity Ratio: 29.51
[7]; I1 relative to α2 receptors
  selectivity for I1 relative to α2 receptors: about 30 fold

— patent publication US20250177354A1, “THERAPEUTIC COMBINATIONS, COMPOSITIONS, AND METHODS FOR DESIGNING AND PRODUCING EN[…]” (Mindstate Design Labs, Inc., priority 2022, published 2025)
